Values after ≈ are worked out from the molar mass of the structure shown.

Holding throughout (type): functional
The subject of test [1] is Staphylococcus aureus. The experiment in a line: Antibacterial activity against rifamycin-resistance Staphylococcus aureus CB370.
Test [2] relates to Staphylococcus aureus. Put plainly: Antibacterial activity against rifamycin-resistance Staphylococcus aureus CB372.
In test [3] the test system is Staphylococcus aureus. The experiment in a line: Antibacterial activity against rifamycin-sensitive Staphylococcus aureus CB190 ATCC 29213.

The MIC is the lowest concentration found to suppress growth. High values mean weaker potency, low ones greater potency. As to `CO[C@H]1/C=C/O[C@@]2(C)Oc3c(C)c(O)c4c(=O)c(c5oc6cc(N7CCN(CC8CCN(C)CC8)CC7)cc(O)c6nc-5c4c3/C2=N/O)NC(=O)/C(C)=C\C=C\[C@H](C)[C@H](O)[C@@H](C)[C@@H](O)[C@@H](C)[C@H](OC(C)=O)[C@@H]1C`, the MIC turned out to be 32 µg/mL (≈ 31.6 µM) in test [1], 4 µg/mL (≈ 3.96 µM) in test [2] and 0.13 µg/mL (≈ 0.129 µM) in test [3].

As to `CO[C@H]1/C=C/O[C@@]2(C)Oc3c(C)c(O)c4c(=O)c(c5oc6cc(N7CCN(C(C)C)CC7)cc(O)c6nc-5c4c3/C2=N/O)NC(=O)/C(C)=C\C=C\[C@H](C)[C@H](O)[C@@H](C)[C@@H](O)[C@@H](C)[C@H](OC(C)=O)[C@@H]1C`, the MIC in test [1] was 32 µg/mL (≈ 34 µM); in test [2], 1 µg/mL (≈ 1.06 µM); in test [3], 0.008 µg/mL (≈ 0.00849 µM).

Regarding `CO[C@H]1/C=C/O[C@@]2(C)Oc3c(C)c(O)c4c(O)c(cc(O)c4c3C2=O)NC(=O)/C(C)=C\C=C\[C@H](C)[C@H](O)[C@@H](C)[C@@H](O)[C@@H](C)[C@H](OC(C)=O)[C@@H]1C` [RIFAMYCIN], the MIC is greater than 64 µg/mL in test [1], 2 µg/mL (≈ 2.87 µM) in test [2] and 0.016 µg/mL (≈ 0.0229 µM) in test [3].

For `CO[C@H]1/C=C/O[C@@]2(C)Oc3c(C)c(O)c4c(O)c(c(/C=N/N5CCN(C)CC5)c(O)c4c3C2=O)NC(=O)/C(C)=C\C=C\[C@H](C)[C@H](O)[C@@H](C)[C@@H](O)[C@@H](C)[C@H](OC(C)=O)[C@@H]1C` [RIFAMPIN], the results for the MIC in test [1], in test [2] and in test [3] were greater than 64 µg/mL, 16 µg/mL (≈ 19.4 µM) and 0.008 µg/mL (≈ 0.00972 µM), respectively.

For `CO[C@H]1/C=C/O[C@@]2(C)Oc3c(C)c(O)c4c(=O)c(c5oc6cc(N7CCN(CC(C)C)CC7)cc(O)c6nc-5c4c3/C2=N/O)NC(=O)/C(C)=C\C=C\[C@H](C)[C@H](O)[C@@H](C)[C@@H](O)[C@@H](C)[C@H](OC(C)=O)[C@@H]1C`, the MIC in test [1] was found to be 32 µg/mL (≈ 33.5 µM); in test [2], 2 µg/mL (≈ 2.09 µM); in test [3] it was 0.004 µg/mL (≈ 0.00418 µM).

With `CO[C@H]1/C=C/O[C@@]2(C)Oc3c(C)c(O)c4c(=O)c(c5oc6cc(N7CCN(C)CC7)cc(O)c6nc-5c4c3/C2=N/O)NC(=O)/C(C)=C\C=C\[C@H](C)[C@H](O)[C@@H](C)[C@@H](O)[C@@H](C)[C@H](OC(C)=O)[C@@H]1C`, the MIC in test [1] was 32 µg/mL (≈ 35 µM); in test [2], 1 µg/mL (≈ 1.09 µM); in test [3], 0.004 µg/mL (≈ 0.00438 µM).

`CO[C@H]1/C=C/O[C@@]2(C)Oc3c(C)c(O)c4c(=O)c(c5oc6cc(N7CCN(CC(C)C)CC7)ccc6nc-5c4c3/C2=N/O)NC(=O)/C(C)=C\C=C\[C@H](C)[C@H](O)[C@@H](C)[C@@H](O)[C@@H](C)[C@H](OC(C)=O)[C@@H]1C`: the MIC in test [1] was found to be 8 µg/mL (≈ 8.51 µM); in test [2], 0.5 µg/mL (≈ 0.532 µM); in test [3], 0.004 µg/mL (≈ 0.00425 µM).

In the case of `CO[C@H]1/C=C/O[C@@]2(C)Oc3c(C)c(O)c4c(=O)c(c5oc6cc(N7CCN(C(C)C)CC7)ccc6nc-5c4c3/C2=N/O)NC(=O)/C(C)=C\C=C\[C@H](C)[C@H](O)[C@@H](C)[C@@H](O)[C@@H](C)[C@H](OC(C)=O)[C@@H]1C`, the values for the MIC in test [1], in test [2] and in test [3] were 8 µg/mL (≈ 8.64 µM), 0.12 µg/mL (≈ 0.13 µM) and 0.0005 µg/mL (≈ 0.00054 µM), respectively.

Turning to `CO[C@H]1/C=C/O[C@@]2(C)Oc3c(C)c(O)c4c(=O)c(c5oc6cc(N7CCN(CC(C)C)CC7)cc(O)c6nc-5c4c3C2=O)NC(=O)/C(C)=C\C=C\[C@H](C)[C@H](O)[C@@H](C)[C@@H](O)[C@@H](C)[C@H](OC(C)=O)[C@@H]1C` [RIFALAZIL], the MIC in test [1] was determined as 32 µg/mL (≈ 34 µM); in test [2], 2 µg/mL (≈ 2.13 µM); in test [3], 0.004 µg/mL (≈ 0.00425 µM).

Turning to `CO[C@H]1/C=C/O[C@@]2(C)Oc3c(C)c(O)c4c(=O)c(c5oc6cc(N7CCN(CC(C)C)CC7)cc(C)c6nc-5c4c3/C2=N/O)NC(=O)/C(C)=C\C=C\[C@H](C)[C@H](O)[C@@H](C)[C@@H](O)[C@@H](C)[C@H](OC(C)=O)[C@@H]1C`, the values for the MIC in test [1], in test [2] and in test [3] were greater than 64 µg/mL, 4 µg/mL (≈ 4.19 µM) and 0.008 µg/mL (≈ 0.00838 µM), respectively.

As to `CO[C@H]1/C=C/O[C@@]2(C)Oc3c(C)c(O)c4c(=O)c(c5oc6cc(N7CCN(C)CC7)cc(C)c6nc-5c4c3/C2=N/O)NC(=O)/C(C)=C\C=C\[C@H](C)[C@H](O)[C@@H](C)[C@@H](O)[C@@H](C)[C@H](OC(C)=O)[C@@H]1C`, the MIC in test [1] came out at 16 µg/mL (≈ 17.5 µM); in test [2] it was 1 µg/mL (≈ 1.1 µM); in test [3] it was 0.004 µg/mL (≈ 0.00439 µM).

Take `CCCCN1CCN(c2cc(O)c3nc4c5c6c7c(C)c(O)c5c(=O)c(c-4oc3c2)NC(=O)/C(C)=C\C=C\[C@H](C)[C@H](O)[C@@H](C)[C@@H](O)[C@@H](C)[C@H](OC(C)=O)[C@H](C)[C@@H](OC)/C=C/O[C@@](C)(O7)/C6=N\O)CC1`: the MIC in test [1] was 16 µg/mL (≈ 16.7 µM); in test [2], 2 µg/mL (≈ 2.09 µM); in test [3], 0.004 µg/mL (≈ 0.00418 µM).

`CO[C@H]1/C=C/O[C@@]2(C)Oc3c(C)c(O)c4c(c3C2=O)C(=O)C=C(NC(=O)/C(C)=C\C=C\[C@H](C)[C@H](O)[C@@H](C)[C@@H](O)[C@@H](C)[C@H](OC(C)=O)[C@@H]1C)C4=O` [RIFAMYCIN S]: the results for the MIC in test [1], in test [2] and in test [3] were greater than 64 µg/mL, 4 µg/mL (≈ 5.75 µM) and 0.016 µg/mL (≈ 0.023 µM), respectively.

On to `CO[C@H]1/C=C/O[C@@]2(C)Oc3c(C)c(O)c4c(=O)c(c5oc6cc(N7CCN(CC8CCCCC8)CC7)ccc6nc-5c4c3/C2=N/O)NC(=O)/C(C)=C\C=C\[C@H](C)[C@H](O)[C@@H](C)[C@@H](O)[C@@H](C)[C@H](OC(C)=O)[C@@H]1C`, for which the figures for the MIC in test [1], in test [2] and in test [3] were 16 µg/mL (≈ 16.3 µM), 2 µg/mL (≈ 2.04 µM) and 0.008 µg/mL (≈ 0.00816 µM), respectively.

`CO[C@H]1/C=C/O[C@@]2(C)Oc3c(C)c(O)c4c(=O)c(c5oc6cc(N7CCN(CC8CCCCC8)CC7)cc(O)c6nc-5c4c3/C2=N/O)NC(=O)/C(C)=C\C=C\[C@H](C)[C@H](O)[C@@H](C)[C@@H](O)[C@@H](C)[C@H](OC(C)=O)[C@@H]1C`: the values for the MIC in test [1], in test [2] and in test [3] were 8 µg/mL (≈ 8.03 µM), 8 µg/mL (≈ 8.03 µM) and 0.008 µg/mL (≈ 0.00803 µM), respectively.

For `CO[C@H]1/C=C/O[C@@]2(C)Oc3c(C)c(O)c4c(c3/C2=N/O)C(=O)C=C(NC(=O)/C(C)=C\C=C\[C@H](C)[C@H](O)[C@@H](C)[C@@H](O)[C@@H](C)[C@H](OC(C)=O)[C@@H]1C)C4=O`, the values for the MIC in test [1], in test [2] and in test [3] were 32 µg/mL (≈ 45 µM), 0.5 µg/mL (≈ 0.703 µM) and 0.002 µg/mL (≈ 0.00281 µM), respectively.

Turning to `CCN1CCN(c2cc(O)c3nc4c5c6c7c(C)c(O)c5c(=O)c(c-4oc3c2)NC(=O)/C(C)=C\C=C\[C@H](C)[C@H](O)[C@@H](C)[C@@H](O)[C@@H](C)[C@H](OC(C)=O)[C@H](C)[C@@H](OC)/C=C/O[C@@](C)(O7)/C6=N\O)CC1`, the figures for the MIC in test [1], in test [2] and in test [3] were 32 µg/mL (≈ 34.5 µM), 2 µg/mL (≈ 2.16 µM) and 0.008 µg/mL (≈ 0.00862 µM), respectively.

The record behind these values is ChEMBL document CHEMBL1137477, “Preparation and in vitro anti-staphylococcal activity of novel 11-deoxy-11-hydroxyiminorifamycins” (2007).
